Reference: US20240165311A1, “STEM CELLS FOR USE IN ECMO TECHNOLOGY” (priority 2021, published 2024)

Experiments:
[1] = test system: human PBMCs activated with anti-CD3/anti-CD28; assay: PBMC:MSC co-culture, cell composition after 24 hours of activation (FACS); conditions: Prednisolone 125 nM
Experimental: (§1) Freshly isolated human PBMCs, pooled from three donors, were activated with anti-CD3/anti-CD28 at 10 μg/ml and 5 μg/ml respectively in presence of MSCs ex vivo for 24 or 72 hours. Following activation, cells were analysed for effects on cellular composition after 24 hours and for effects on cellular composition and cell proliferation using CFSE after 72 hours. In addition, supernatants collected after 24 hours of activation were analysed for cytokine levels using Luminex.
(§2) Peripheral Blood Mononuclear Cells (PBMCs) were isolated from leucocyte concentrate from three different donors (acquired from Blodcentralen, Lunds Universitetssjukhus, Lund, Sweden) through gradient centrifugation at 400×g for 40 minutes using Ficoll. Red blood cells (RBCs) were lysed using BD Pharmlyse buffer 10× diluted in milliQ water for 3 minutes at room temperature (RT). Cells were washed and the isolated PBMCs were pooled. Cell concentration was determined using a Scepter cell counter (Millipore Merck, MA. USA). Cells were diluted to 1×10^7 cells/ml in PBS. Pooled PBMCs were split into 2 different tubes. Cells in tube 1 was stained with CFSE at 5 μM for 5 minutes (dark, RT). CFSE stained cells were washed with an equal volume of FBS to stop the reaction and washed again with PBS. Cells in tube two was left in PBS.
(§3) MSCs (donor 1, donor 2, donor 3, and AD-MSC control cells) were provided in 8 different tubes, two for each cell type (in different medias (M3 and M4). All cells (PBMCs and MSCs) were diluted in the two different cell culture media (M3 and M4) to a final concentration of 2*10^6 cells/ml. Media was supplemented with anti-CD28 at 5 μg/ml. Cells were added to anti-CD3 (1 μg/well, 100 μl/well) coated U bottom cell culture plates according to the layout below, 200 μl/well in different PBMC:MSC ratios (1:10, 1:5, 1:2.5, 1:0 and 0:1) with a total amount of cells at 4*10^5 cells/well.
(§4) Included in the assay were also controls (stimulated and unstimulated PBMCs) and two reference drugs, e.g. cyclosporine (CsA) and Prednisolone (Pred). When plating controls, cells were spun down and diluted in M3 or M4 at 4*10^6 cells/ml, with a total amount of cells at 4*10^5 cells/well. 100 μl PBMCs were added per well. CsA was added at a final concentration of 10 μg/ml and Prednisolone was added at a final concentration of 125 nM (700 μl/well). Medium was added to unstimulated control wells (700 μl/well). Cells were incubated for 24 or 72 hours at 37° C., 5% CO2. See also FIG. 19.
Following 24 hours of incubation, cells in FACS/Luminex plates were stained with antibodies detecting CD73, CD4, CD8, CD80, CD206, CD163 and PD-1 in staining buffer (PBS supplemented with 1% BSA). Briefly, cells were transferred to V bottom plates and centrifuged at 360×g for 2 min. Supernatant was transferred to a storage plate and put in −20° C. until analysis using Luminex. Cells were washed in PBS, centrifuged at 360×g for 2 min at 4° C. Supernatant was flicked off and antibodies against surface markers were added. Cells were incubated at +4° C. for 20 minutes (dark). After incubation, cells were washed 1× in PBS, centrifuged at 360×g for 2 min at 4° C. Cells were resuspended in PBS and acquired using the Attune Nxt flow cytometer. Compensation was performed using beads—AbC Total Compensation capture beads and negative beads. Since compensation was done using beads, FSC and SSC were changed before analysing samples and adjusted to cells. Lasers were not changed after compensation. 150 μl was analysed from each sample.

[2] = test system: human PBMCs activated with anti-CD3/anti-CD28; assay: PBMC:MSC co-culture, proliferation and cell composition after 72 hours of activation (FACS after CFSE labeling); conditions: MSCs in co-culture, Prednisolone 125 nM
Experimental: as §1, §2, §3, §4
After 72 hours of incubation, CFSE stained cells were stained with CD4, CD8, CD80, CD206 and CD163 in staining buffer. Briefly, cells were transferred to V bottom plates, centrifuged at 360×g for 2 min. Cells were washed in PBS, centrifuged at 360×g for 2 min at 4° C. Supernatant was flicked off and surface markers were added. Cells were incubated at +4° C. for 20 minutes. After incubation, cells were washed 1× in PBS, centrifuged at 360×g for 2 min at 4° C. Cells were resuspended in PBS and acquired using the Attune Nxt flow cytometer. Compensation was performed using beads—AbC Total Compensation capture beads and negative beads for surface markers. For CFSE compensation, newly CFSE stained cells were used. Since compensation was done using both beads and cells, FSC and SSC were changed and adjusted to beads or cells. […]
Graphs were performed using Prism 8 for Mac OS X (GraphPad Software, San Diego, CA, USA). […] The inhibitory effect of MSCs on PBMC proliferation was calculated according to the two formulas below: […]

[3] = test system: human PBMCs activated with anti-CD3/anti-CD28; assay: Cytokine analysis after 24 hours of activation (Luminex); assay type: cell-based; conditions: stimulated PBMCs, Prednisolone 125 nM
Experimental: Cells were washed and the isolated PBMCs were pooled. […] Pooled PBMCs were split into 2 different tubes. […] Cells in tube two was left in PBS. […] See also FIG. 19. Supernatant (24 hours incubation) was analysed for cytokines using the 12-[…]-12 Luminex kit. All reagents, standard and samples were prepared at room temperature and according to manufacturer's instruction. Briefly, 50 μl of standard or sample was added to wells. Microparticles were added to samples and standard and samples were incubated for 2 hours at room temperature on a horizontal orbital shaker (800 rpm). Plate was washed 3× in washing buffer using a magnetic plate. Biotin-antibody was added and incubated dark for 1 hour at room temperature on a horizontal orbital shaker (800 rpm). Plate was washed 3× in washing buffer using a magnetic plate. Streptavidin-PE was added to each well and incubated dark at room temperature on a horizontal orbital shaker (800 rpm) for 30 minutes. Plate was washed 3× in washing buffer using a magnetic plate. Microparticles were resuspended in 100 μl washing buffer, incubated for 2 minutes on a horizontal orbital shaker (800 rpm). Samples were analysed on a Bio-Rad Luminex analyzer.

`C[C@]12C=CC(=O)C=C1CC[C@@H]1[C@@H]2[C@@H](O)C[C@@]2(C)[C@H]1CC[C@]2(O)C(=O)CO` [Prednisolone] was tested, and the M2 macrophage expression ([1]; CsA 10 μg/ml) was “no effect”, the “expression level of M1 macrophages” value ([1]; CsA 10 μg/ml) was “no effect” and the macrophage cell composition [1] was “did not have an effect”. For the same compound, the T cell activation ([1]; reference drug treated PBMCs, CsA 10 μg/ml) was “only slightly inhibits”, the “% T helper cells” value ([1]; reference drug treated PBMCs) was “higher levels” and the “T helper cells (% )” value ([2]; 72 hours of incubation, CsA 10 μg/ml) was “no effect”. The “M1 proliferation (CFSE)” value ([2]; 72 hours, CsA 10 μg/ml) was “No effect”, the M2 expression levels ([2]; 72 hours, CsA 10 μg/ml) was “no effect” and the “M2 proliferation (CFSE)” value ([2]; 72 hours, CsA 10 μg/ml) was “No effect”. The M1 expression levels ([2]; 72 hours) was “no effect”, the “IL-6 levels in supernatant” value ([3]; CsA 10 μg/ml) was “inhibits” and the “the other analysed cytokines, levels in supernatant” value ([3]; CsA 10 μg/ml, 12-plex Luminex) was “No inhibitory effect”. For the same compound, the “TNF-α levels in supernatant” value ([3]; MSCs at all ratios, CsA 10 μg/ml) was “inhibits”, the “IL12/IL23p40 levels in supernatant” value ([3]; MSCs at all ratios) was “inhibits” and the “HGF levels in supernatant” value ([3]; MSCs dose-dependent, CsA 10 μg/ml) was “inhibits”.
